# In patent publication US9499548B2, “Inhibitors of bruton's tyrosine kinase” (Hoffmann-La Roche Inc., priority 2012, dated 2016):
# Test system: B cell receptor-mediated activation of B cells in human blood (CD69 expression)
# Test: Inhibition of B cell activation in whole blood measured by CD69 expression
# Assay type: cell-based
# Conditions: anti-IgM stimulation, 20 hours, concentration decreasing by 50% the CD69-positive cells that are also CD20-positive
# Method: Inhibition of B Cell Activation in Whole Blood Measured by CD69 Expression
# A procedure to test the ability of Btk inhibitors to suppress B cell receptor-mediated activation of B cells in human blood is as follows:
# Human whole blood (HWB) is obtained from healthy volunteers, with the following restrictions: 24 hr drug-free, non-smokers. Blood is collected by venipuncture into Vacutainer tubes anticoagulated with sodium heparin. Test compounds are diluted to ten times the desired starting drug concentration in PBS (20×), followed by three-fold serial dilutions in 10% DMSO in PBS to produce a nine point dose-response curve. 5.5 μl of each compound dilution is added in duplicate to a 2 ml 96-well V bottom plate (Analytical Sales and Services, #59623-23); 5.5 μl of 10% DMSO in PBS is added to control and no-stimulus wells. HWB (100 μl) is added to each well, and after mixing the plates are incubated at 37 C, 5% CO2, 100% humidity for 30 minutes. Goat F(ab′)2 anti-human IgM (Southern Biotech, #2022-14) (10 μl of a 500 μg/ml solution, 50 μg/ml final concentration) is added to each well (except the no-stimulus wells) with mixing and the plates are incubated for an additional 20 hours.
# At the end of the 20 hour incubation, samples are incubated with florescent-probe-labeled antibodies (15 μl PE Mouse anti-Human CD20, BD Pharmingen, #555623, and/or 20 ul APC Mouse anti-Human CD69, BD Pharmingen #555533) for 30 minutes, at 37 C, 5% CO2, 100% humidity. Included are induced control, unstained and single stains for compensation adjustments and initial voltage settings. Samples are then lysed with 1 ml of 1× Pharmingen Lyse Buffer (BD Pharmingen #555899), and plates are centrifuged at 1800 rpm for 5 minutes. Supernatants are removed via suction and the remaining pellets are lysed again with another 1 ml of 1× Pharmingen Lyse Buffer, and plates are spun down as before. Supernatants are aspirated and remaining pellets are washed in FACs buffer (PBS+1% FBS). After a final spin, the supernatants are removed and pellets are resuspended in 180 μl of FACs buffer. Samples are transferred to a 96 well plate suitable to be run on the HTS 96 well system on the BD LSR II flow cytometer.
# Using appropriate excitation and emission wavelengths for the fluorophores used, data are acquired and percent positive cell values are obtained using Cell Quest Software. Results are initially analyzed by FACS analysis software (Flow Jo). […] The IC50 values are calculated using XLfit software version 3, equation 201.
# Representative compound data for this assay are listed below in Table II.
row,IC50 [nM],Structure (SMILES)
1,36,"CN1CC[C@H](c2ccc(Nc3cc(-c4cccc(-n5ncc6cc(C(C)(C)C)ccc6c5=O)c4CO)nn(C)c3=O)nc2)C1 [Compound I-6, 6-tert-Butyl-2-(2-hydroxymethyl-3-{1-methyl-5-[5-((R)-1-methyl-pyrrolidin-3-yl)-pyridin-2-ylamino]-6-oxo-1,6-dihydro-pyridazin-3-yl}-phenyl)-2H-phthalazin-1-one]"
2,35,"CN1CC[C@@H](c2ccc(Nc3cc(-c4cccc(-n5ncc6cc(C(C)(C)C)ccc6c5=O)c4CO)nn(C)c3=O)nc2)C1 [Compound I-5, 6-tert-Butyl-2-(2-hydroxymethyl-3-{1-methyl-5-[5-((S)-1-methyl-pyrrolidin-3-yl)-pyridin-2-ylamino]-6-oxo-1,6-dihydro-pyridazin-3-yl}-phenyl)-2H-phthalazin-1-one]"
3,47,"Cn1nc(-c2cccc(-n3ncc4cc(C(C)(C)C)ccc4c3=O)c2CO)cc(Nc2ccc(C(=O)N3CCOCC3)cn2)c1=O [Compound I-10, 6-tert-Butyl-2-(2-hydroxymethyl-3-{1-methyl-5-[5-(morpholine-4-carbonyl)-pyridin-2-ylamino]-6-oxo-1,6-dihydro-pyridazin-3-yl}-phenyl)-2H-phthalazin-1-one]"
4,30,"Cn1nc(Nc2cc(-c3cccc(-n4ncc5cc(C(C)(C)C)ccc5c4=O)c3CO)nn(C)c2=O)cc1CN1CCC1 [Compound I-3, 2-{3-[5-(5-Azetidin-1-ylmethyl-1-methyl-1H-pyrazol-3-ylamino)-1-methyl-6-oxo-1,6-dihydro-pyridazin-3-yl]-2-hydroxymethyl-phenyl}-6-tert-butyl-2H-phthalazin-1-one]"
5,198,"CN1CCC(c2ccc(Nc3cc(-c4cccc(N5CCc6cc(C(C)(C)C#N)ccc6C5=O)c4CO)nn(C)c3=O)nc2)CC1 [Compound I-15, 2-(2-{2-Hydroxymethyl-3-[1-methyl-5-(1′-methyl-1′,2′,3′,4′,5′,6′-hexahydro-[3,4′]bipyridinyl-6-ylamino)-6-oxo-1,6-dihydro-pyridazin-3-yl]-phenyl}-1-oxo-1,2,3,4-tetrahydro-isoquinolin-6-yl)-2-methyl-propionitrile]"
6,32,"CN1CCC[C@H]1c1ccc(Nc2cc(-c3cccc(-n4ncc5cc(C(C)(C)C)ccc5c4=O)c3CO)nn(C)c2=O)nc1 [Compound I-4, 6-tert-Butyl-2-(2-hydroxymethyl-3-{1-methyl-5-[5-((S)-1-methyl-pyrrolidin-2-yl)-pyridin-2-ylamino]-6-oxo-1,6-dihydro-pyridazin-3-yl}-phenyl)-2H-phthalazin-1-one]"
7,573,"Cn1nc(-c2cccc(-n3ncc4cc(C(C)(C)C)ccc4c3=O)c2CO)cc(Nc2ccc(OC(C)(C)CN3CC(F)(F)C3)cn2)c1=O [Compound I-14, 6-tert-Butyl-2-[3-(5-{5-[2-(3,3-difluoro-azetidin-1-yl)-1,1-dimethyl-ethoxy]-pyridin-2-ylamino}-1-methyl-6-oxo-1,6-dihydro-pyridazin-3-yl)-2-hydroxymethyl-phenyl]-2H-phthalazin-1-one]"
8,188,"Cn1nc(-c2cccc(-n3ncc4cc(C(C)(C)C)ccc4c3=O)c2CO)cc(Nc2ccc(C3CCN(C4COC4)CC3)cn2)c1=O [Compound I-13, 6-tert-Butyl-2-{2-hydroxymethyl-3-[1-methyl-5-(1′-oxetan-3-yl-1′,2′,3′,4′,5′,6′-hexahydro-[3,4′]bipyridinyl-6-ylamino)-6-oxo-1,6-dihydro-pyridazin-3-yl]-phenyl}-2H-phthalazin-1-one]"

# More lines, now with the values behind:
row,Structure (SMILES),IC50 [nM]
1,"Cn1nc(-c2cccc(-n3ncc4cc(C(C)(C)C)ccc4c3=O)c2CO)cc(Nc2ccc(OC(C)(C)CNCCCO)cn2)c1=O [Compound I-12, 6-tert-Butyl-2-[2-hydroxymethyl-3-(5-{5-[2-(3-hydroxy-propylamino)-1,1-dimethyl-ethoxy]-pyridin-2-ylamino}-1-methyl-6-oxo-1,6-dihydro-pyridazin-3-yl)-phenyl]-2H-phthalazin-1-one]",187
2,"Cn1nc(-c2cccc(-n3ncc4cc(C(C)(C)C)ccc4c3=O)c2CO)cc(Nc2ccc(OC(C)(C)CN3CCC3)cn2)c1=O [Compound I-1, 2-(3-{5-[5-(2-Azetidin-1-yl-1,1-dimethyl-ethoxy)-pyridin-2-ylamino]-1-methyl-6-oxo-1,6-dihydro-pyridazin-3-yl}-2-hydroxymethyl-phenyl)-6-tert-butyl-2H-phthalazin-1-one]",6
3,"CN1CCC(c2ccc(Nc3cc(-c4cccc(-n5ncc6cc(C(C)(C)C)ccc6c5=O)c4CO)nn(C)c3=O)nc2)CC1 [Compound I-2, 6-tert-Butyl-2-{2-hydroxymethyl-3-[1-methyl-5-(1′-methyl-1′,2′,3′,4′,5′,6′-hexahydro-[3,4′]bipyridinyl-6-ylamino)-6-oxo-1,6-dihydro-pyridazin-3-yl]-phenyl}-2H-phthalazin-1-one]",10
4,"Cn1nc(-c2cccc(-n3ncc4cc(C(C)(C)C#N)ccc4c3=O)c2CO)cc(Nc2ccc(OC(C)(C)CN3CCC3)cn2)c1=O [Compound I-11, 2-[2-(3-{5-[5-(2-Azetidin-1-yl-1,1-dimethyl-ethoxy)-pyridin-2-ylamino]-1-methyl-6-oxo-1,6-dihydro-pyridazin-3-yl}-2-hydroxymethyl-phenyl)-1-oxo-1,2-dihydro-phthalazin-6-yl]-2-methyl-propionitrile]",135
5,"CN1CCn2nc(Nc3cc(-c4cccc(-n5ncc6cc(C(C)(C)C)ccc6c5=O)c4CO)nn(C)c3=O)cc2C1 [Compound I-8, 6-tert-Butyl-2-{2-hydroxymethyl-3-[1-methyl-5-(5-methyl-4,5,6,7-tetrahydro-pyrazolo[1,5-a]pyrazin-2-ylamino)-6-oxo-1,6-dihydro-pyridazin-3-yl]-phenyl}-2H-phthalazin-1-one]",42
6,"CCN1CCC(c2ccc(Nc3cc(-c4cccc(-n5ncc6cc(C(C)(C)C)ccc6c5=O)c4CO)nn(C)c3=O)nc2)CC1 [Compound I-9, 6-tert-Butyl-2-{3-[5-(1′-ethyl-1′,2′,3′,4′,5′,6′-hexahydro-[3,4′]bipyridinyl-6-ylamino)-1-methyl-6-oxo-1,6-dihydro-pyridazin-3-yl]-2-hydroxymethyl-phenyl}-2H-phthalazin-1-one]",45
7,"CN1CCC(c2ccc(Nc3cc(-c4cccc(-n5ncc6cc(C(C)(C)C#N)ccc6c5=O)c4CO)nn(C)c3=O)nc2)CC1 [Compound I-7, 2-(2-{2-Hydroxymethyl-3-[1-methyl-5-(1′-methyl-1′,2′,3′,4′,5′,6′-hexahydro-[3,4′]bipyridinyl-6-ylamino)-6-oxo-1,6-dihydro-pyridazin-3-yl]-phenyl}-1-oxo-1,2-dihydro-phthalazin-6-yl)-2-methyl-propionitrile]",38
